Results from US7745446B2, “Pyrazolo[1,5-c]pyrimidines” (Bayer Schering Pharma Aktiengesellschaft, priority 2004, dated 2010).
Like-named read-outs stand apart in the source and are kept apart here.

How the values were obtained:
[1] = target: T1, full-length Akt1 (active) (Homo sapiens, UniProt P31749); assay: Biochemical Akt1 assay (full-length Akt1 active, flashplate, Crosstide); conditions: 100 nM ATP, Crosstide substrate; read-out: Akt1 inhibition (full-length Akt1, active): IC50
T1 construct: recombinant full-length human Akt1, containing N-terminal His6 tag; His6 (N); GST (N); purchased Upstate, UK #14-276; host or cells: baculovirus infected Sf21 insect cells
T1 sequence (P31749 whole entry): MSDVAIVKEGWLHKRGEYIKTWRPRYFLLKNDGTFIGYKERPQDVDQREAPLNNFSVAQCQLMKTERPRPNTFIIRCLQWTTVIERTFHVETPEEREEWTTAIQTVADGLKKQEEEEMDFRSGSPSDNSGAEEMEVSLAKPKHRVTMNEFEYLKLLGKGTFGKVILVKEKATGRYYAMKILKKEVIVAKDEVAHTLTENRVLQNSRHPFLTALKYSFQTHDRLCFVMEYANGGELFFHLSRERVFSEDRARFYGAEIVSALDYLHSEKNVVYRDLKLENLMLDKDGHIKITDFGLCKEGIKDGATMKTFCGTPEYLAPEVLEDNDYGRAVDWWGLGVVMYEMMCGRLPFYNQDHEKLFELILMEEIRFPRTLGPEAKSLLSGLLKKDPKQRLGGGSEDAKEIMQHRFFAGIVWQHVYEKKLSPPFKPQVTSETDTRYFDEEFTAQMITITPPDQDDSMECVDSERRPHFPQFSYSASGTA
Description: For the biochemical Akt1 assay recombinant full-length human Akt1, containing N-terminal His6 tag is cloned and expressed in baculovirus infected Sf21 insect cells. Akt1 is activated with GST-MAPKAP-K2 and PDK1, and repurified on Ni2+/NTA-agrose and glutathioneagarose (Upstate, UK; #14-276).
In order to study the inhibition of Akt1 (full-length version) according to the invention, a flashplate-based assay has been developed.
The full-length Akt1 assay is a biochemical assay using Akt1 N-terminally fused to GST and co-expressed with PDKI in insect cells. The Akt1 assay is run in 96 well plates by incubating 500 ng/well GST-Akt1, 1 μM Crosstide (N-terminally biotinylated synthetic peptide (KGSGSGRPRTSSFAEG) Upstate, #12-385) as substrate, 10 μl of test compound (test compounds were dissolved as 10 mM solutions in dimethylsulfoxide (DMSO) and subsequently diluted) and 100 nM ATP (including ^33P-ATP) in 100 μl of reaction buffer (50 mM HEPES, pH7,5; 3 mM MgCl2; 3 mM MnCl2; 3 μM Na-Orthovanadat; 1 mM DTT; 1 μg/ml PEG8000) for 60 minutes at 30° C. in 96 well microtiter plates. The reactions are terminated by adding 100 μl stopping buffer (5M NaCl, 35 mM EDTA pH 8.0) for 5 minutes. 190μl of the reaction mixture are transferred into streptavidin-coated Flashplates (Perkin Elmer, #SMP-103) and incubated for further 30 minutes at room temperature. The plates are washed 3 times by using washing buffer (0.9% NaCl). Relying on the incorporation of ^33P into the peptide substrate crosstide, the detection is based on the specific binding of the biotinylated peptide to the streptavidin-coated surface of scintillator-coated flash plates (NEN, USA; #SMP-103). This phosphorylation is measured by counting the plate for 60 sec. using a plate reader (Wallac Microbeta; Perkin Elmer, USA).

[2] = target: T2, full-length Akt1 (inactive) (Homo sapiens, UniProt P31749); assay: Biochemical Akt1 assay (full-length Akt1 inactive, PDK1-dependent activation, IMAP); conditions: PDK1 and PIP3 vesicles, 50 μM ATP; read-out: Inhibition of Akt1 activation (full-length Akt1, inactive): IC50
T2 construct: recombinant full-length human Akt1 a containing N-terminal His6 tag; His6 (N); purchased Upstate, UK #14-279; host or cells: baculovirus infected Sf21 insect cells
T2 sequence (P31749 whole entry): as above
Description: The enzyme is purified using Ni2+/NTA-agarose (Upstate, UK; #14-279).
The enzyme is purified using Ni2+/NTA-agarose.
PDK1-dependent activation and subsequent enzymatic activity of Akt1: Activity of purified human Akt1 is routinely measured in an assay in which the enzyme is first activated by PDK1 in the presence of phosphatidylinositol-3,4,5-triphosphate (PIP3). Once activated, Akt1-dependent phosphorylation of a fluorescence labelled peptide substrate is measured by fluorescence polarisation using the IMAP technology (Molecular Devices).
The phospholipids are prepared as follows: 5 mg DOPC/DOPS are solved in 200 μl 10 mM Tris (pH 7.4) and 300 μg PIP3 are resuspended in 950 μl 10 mM Tris (pH 7.4) by pipetting. 950 μl solved PIP3 are mixed with 50 μl solved DOPC/DOPS and incubated for 2 h at a temperature below 20° C. Then the mixture is subjected to sonification for 30 min. at max. power until a translucent phopholipid vesicle preparation is obtained. Aliquots of the vesicle suspension are frozen at -80° C. until needed, likewise the solved DOPC/DOPS.
Assays are performed in 384-well plates. Incubations are carried out for 60 min. at room temperature. The reaction buffer mixture contained in a final volume of 25 μl: 10 mM Tris pH 7,4, 10 mM MgCl2. 1 mM DTT, and 0.1 mg/ml BSA. In contrast the activation buffer contained: 50 ng/well Akt1, 20 ng/well PDK1, 1.25 μM peptide substrat, 50 μM ATP, and phospholipid vesicles (1:20). Test compounds are added from stock solutions in DMSO before activation of Akt1 by PDK1. After the incubation the beads (IMAP binding reagent; Molecular Devices; 1:167) are added and the fluorescence polarization is measured (excitation 485 nm, emission 530 nm).

[3] = system: MCF7 cells; assay: Cellular proliferation/cytotoxicity assay (Alamar Blue), MCF7; conditions: Homo sapiens, MCF7, 48 h, read-out: Anti-proliferative/cytotoxic activity: IC50 MCF7
[4] = system: MDA-MB-468 cells; assay: Cellular proliferation/cytotoxicity assay (Alamar Blue), MDA-MB-468; conditions: Homo sapiens, MDA-MB-468, 48 h, read-out: Anti-proliferative/cytotoxic activity: IC50 MDA468
Description: (§1) The anti-proliferative activity of the compounds as described herein, is evaluated using MCF7 and MDA-MB-468 (ATCC HTB-22 and HTB-132) cell lines and the Alamar Blue (Resazurin) cell viability assay (O'Brien et al. Eur J Biochem 267, 5421-5426, 2000). Resazurin is reduced to the fluorescent resorufin by cellular dehydrogenase activity, correlating with viable, proliferating cells. Test compounds are dissolved as 10 mM solutions in DMSO and subsequently diluted. MCF7 or MDA-MB-434 cells were seeded into 96 well flat bottom plates at a density of 10000 cells/well (MCF7) or 5000 cells/well (MDA-MB-468) in a volume of 200 μl/well. 24 hours after seeding, 1 μl each of the compound dilutions are added into each well of the 96 well plates. Each compound dilution is tested as at least as duplicates. Wells containing untreated control cells were filled with 200 μl DMEM containing 0.5% v:v DMSO. The cells are then incubated with the substances for 48 hours at 37° C. in a humidified atmosphere containing 5% carbon dioxide. To determine cell viability, 20 μl of a Resazurin solution (Sigma; 90 mg/l) are added. After 4 hours incubation at 37° C. the fluorescence is measured at an extinction of 544 nm and an emission of 590 nm (Wallac Victor2; Perkin Elmer, USA). For the calculation of the cell viability the emission value from untreated cells is set as 100% viability and the emission rates of treated cells are set in relation to the values of untreated cells. Viabilities are expressed as % values. The corresponding IC50 values of the compounds for cytotoxic activity are determined from the concentration-effect curves by means of non-linear regression. The analysis of the data is performed using a biostatistical program (GraphPad Prism, USA).

[5] = target: T3, PKA (Homo sapiens, UniProt P17612); assay: Biochemical PKA assay (flashplate); conditions: 100 nM ATP; read-out: PKA inhibition: −log IC50 (converted)
T3 construct: His; purchased PanVera, USA #R3791; host or cells: E. coli
Description: For the biochemical PKA assay the catalytic subunit of PKA is expressed in E. coli as a His-tagged human recombinant protein and purified accordingly (PanVera, USA; #R3791).
In order to study the kinase inhibition activity of the compounds according to the invention, a flashplate-based assay has been developed for the serine/threonine kinase, PKA. The assay is run in 96 well plates by incubating 1 ng/well His-PKA (PanVera, USA; #R3791), 0.5 μM/well PKA peptide (#12-394; Upstate, USA) as substrate, 10 μl of compound of invention (test compounds were dissolved as 10 mM solutions in dimethylsulfoxide (DMSO) and subsequently diluted) and 100 nM ATP (including ^33P-ATP) in 100 μl of reaction buffer ([…], pH7,5; 3 mM MgCl2; 3 mM MnCl2; 3 μM Na-Orthovanadat; 1 mM DTT) for 80 minutes at 22° C. The reactions are stopped by adding 100 μl stopping buffer (2% H3PO4 for 5 minutes) and are washed 3 times by using washing buffer (200 μl 1×PBS). Relying on the incorporation of ^33P into the peptide substrate, the detection is based on the adhesion of the phosphorylated peptide to the surface of scintillator-coated Flash plates (Perkin Elmer, USA; #SMP-103). This phosphorylation is measured by counting the plate for 60 sec. using a plate reader (Wallac Microbeta; Perkin Elmer, USA). By using this method the IC50 of the PKA inhibition is determined.

[6] = target: T4, GST-ΔPH-Akt1 (Homo sapiens, UniProt P31749); assay: Biochemical ΔPH Akt1 assay (flashplate, 33P incorporation into histone 2B); conditions: 100 nM ATP, histone 2B substrate; read-out: ΔPHAkt1 inhibition: IC50
T4 construct: named GST-deltaPH-Akt1; 107-480aa; cloned in the pAcGl vector; GST (N); made in house; host or cells: SF9 insect cells (baculovirus vector pAcG1), co-expressed with PDK1
T4 sequence (P31749 107-480, stated change not applied): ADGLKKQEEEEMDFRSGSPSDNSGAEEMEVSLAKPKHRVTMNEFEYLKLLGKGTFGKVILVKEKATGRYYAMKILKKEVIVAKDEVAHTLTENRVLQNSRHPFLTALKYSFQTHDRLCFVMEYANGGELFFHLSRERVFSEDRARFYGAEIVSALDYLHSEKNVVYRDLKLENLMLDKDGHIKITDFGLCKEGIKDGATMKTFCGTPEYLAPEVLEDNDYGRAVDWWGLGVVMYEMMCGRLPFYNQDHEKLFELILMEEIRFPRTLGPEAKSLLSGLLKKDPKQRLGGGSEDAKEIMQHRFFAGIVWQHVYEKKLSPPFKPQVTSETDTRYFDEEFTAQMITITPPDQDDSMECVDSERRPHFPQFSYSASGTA
In short: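 The enzyme was GST-fused human Akt1 lacking the PH domain (aa 107–480), co-expressed with PDK1 in Sf9 cells, at 100 ng/well, with 100 ng/well histone 2B substrate and 100 nM ATP including 33P-ATP. 33P incorporation was counted on scintillant-coated flashplates.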

[7] = system: MDA-MB-468 cells
Description: as §1

[8] = system: MCF7 cells

Row | IC50 [1] [µM] | IC50 [2] [µM] | IC50 [5] [µM] | IC50 [6] [nM] | IC50 [7] [µM] | IC50 [8] [µM] | Compound | IC50 [3] [µM] | IC50 [4] [µM]
1 | ≤ 4.03 | ≤ 5 | 6.31 to 100 | ≤ 1750 |  |  | Cn1cc(-c2ccc(-c3cc4ccnn4c(Nc4ccc(NC(=O)c5ccc(CN)cc5)cc4)n3)cc2)cn1 [Example 61, 4-Aminomethyl-N-(4-{5-[4-(1-methyl-1H-pyrazol-4-yl)-phenyl]-pyrazolo[1,5-c]pyrimidin-7-ylamino}-phenyl)-benzamide] | ≤ 16.9 | ≤ 13.6
2 |  |  |  |  | ≤ 13.6 | ≤ 16.9 | Aminomethyl-N-(4-{5-[6-(2-hydroxy-ethoxy)-naphthalen-2-yl]-pyrazolo[1,5-c]pyrimidin-7-ylamino}-phenyl)-benzamide [Example 50] |  | 
